According to patent publication US10736891B2, “Composition and method for treating chagas disease” (priority 2016, dated 2020):

Key:
[1] = Blood chemistries and liver biopsies under amiodarone/itraconazole, dogs
[2] = Blood chemistries and liver biopsies under amiodarone/itraconazole, monkeys
in vivo = conditions: human
[3] = increase from 5 mg/kg to 10 mg/kg once daily; cited from earlier work
[4] = in vivo
Experimental: Accordingly, prior to additional testing, a dosage of Itraconazole and Amiodarone was prepared in accordance with the above example, but with nanomilling of the Itraconazole before formulating into pharmaceutical compositions and administration to patients. In this example, a suspension of itraconazole was prepared and then subject to milling using a media mill such as disclosed in Kumar et al., J. Pharm. Sci. 104:3018-3028 (2015), wherein Itraconazole (1%, w/v) was suspended in a desired concentration of an aqueous stabilizer solution, and the prepared suspension was stirred for 30 minutes or more for complete wetting of the drug by the stabilizer solution. The suspension (e.g., 150 mL) was then wet milled or wet grinded using a conventional wet milling or grinding device, namely one manufactured by Netzsch of Exton, Pa. Using this equipment, the mill is operated at a suitable speed, e.g., 2500 rpm in a continuous mode for a time suitable to reduce particle size to a range of 1 and 400 nm, e.g., 75 minutes. The temperature of the sample was maintained at below 25° C. during the process, and two cooling bath recirculators were used, including one attached to the milling device and the other attached to suspension recirculation chambers. […]

[5] = cited from earlier work

arrythmias [1] | hepatic effects (multiple blood chemistries) [1] | arrythmias [2] | hepatic effects (multiple blood chemistries) [2] | Cmax (in vivo; 5 mg/kg) [ng/mL] | increase in plasma Itraconazole level compared with the Cmax of a previous study (Paniz-Mondolfi et al. 2009) (in vivo; 10 mg/kg) | Cmax (in vivo; po, 10 mg/kg) [ng/mL] | increase of bioavailability of itraconazole [4] [%] | SMILES | Itraconazole Cmax increase [3] | Itraconazole plasma level when given with food compared with without food [5]
0 | 0 | 0 | 0 |  |  |  |  | CCCCc1oc2ccccc2c1C(=O)c1cc(I)c(OCCN(CC)CC)c(I)c1 [Amiodarone] |  | 
 |  |  |  | 3550 | 5-6 fold | 13500 | 2000 | CCC(C)n1ncn(-c2ccc(N3CCN(c4ccc(OCC5COC(Cn6cncn6)(c6ccc(Cl)cc6Cl)O5)cc4)CC3)cc2)c1=O (stereo not shown) [Itraconazole] | 5-6 fold | higher
